Some results are limits rather than exact numbers.

The record followed here is patent US20240368214A1, “POSITIVE NMDA-MODULATING COMPOUNDS AND METHODS OF USE THEREOF” (SAGE THERAPEUTICS, INC., priority 2021, published 2024).

This test addresses T1, recombinant human GluN1/GluN2A receptor (Homo sapiens, UniProt Q05586+Q12879).
T1 construct: expressed in transfected cells; host or cells: HEK293, tetracycline-inducible expression
The test is described as follows: Whole-cell patch clamp of mammalian cells (Syncropatch 384i), NMDA modulation. The format is cell-based. As to conditions: Table B-2, HEK293 cells, human GluN1/GluN2A, glutamate 1 μM / glycine 100 μM, -80 mV, peak amplitude increase; for EC50: read-out: EC50. From the text:
Whole-Cell Patch Clamp of Mammalian Cells (Syncropatch 384i (Nanion Technologies))
Whole-cell patch clamp electrophysiology was used to investigate the effects of compounds on GluN1/GluN2A N-methyl-D-aspartate (NMDA) glutamate receptors expressed in mammalian cells.
Human embryonic kidney (HEK293) cells expressing the recombinant human GluN1/GluN2A receptor under the control of a tetracycline-inducible expression system were used. Cells were maintained in Dulbecco's Modified Eagle's Medium (DMEM) with 1% glutamine, 10% Tetracycline System Approved fetal bovine serum (FBS), and NMDA inhibitors. Cells were cultured in a humidified 5% CO2 incubator at 37° C. Cells were induced with 50 ng/ml tetracycline 18-24 hours prior to testing. A cocktail of channel blockers was added to the media to prevent cell death.
Cells were 60-80% confluent at the time of harvest. Cells were detached from the flask TrypLE Enzyme Express (Thermo Fisher) at 37° C., and then cold extracellular solution was added to the flask, followed by incubation at 4° C. and then trituration of the cells. The cell solution was then placed on a shaker on the Syncropatch platform at 10° C. with a shake speed of a minimum 200 rpm for at least 30 minutes prior to testing.
Extracellular (EC) solution (in mM) —140 NaCl, 4 KCl, 5 CaCl2, 10 HEPES, 5 Glucose, pH 7.4 with NaOH. All external solutions contained 0.2% DMSO and 0.01% Kolliphor® EL (C5135, Sigma) throughout the experiment.
Intracellular (IC) solution (in mM) —120 CsF, 10 mM EGTA, 10 NaCl, 10 HEPES, 4 NaATP, 2 MgCl2, pH 7.2 with CsOH.
First, the DMSO Master Plate was prepared, in which the DMSO stock of each test compound was serially diluted in 100% DMSO to 1000× the final assay concentration. Immediately prior to assay testing, the compounds were diluted 1:100 by transferring solutions from the DMSO Mast Plate to the Intermediate Plate pre-filled with EC solution using a Biomek FX automated liquid handling system. Compounds were then diluted further with extracellular solution into two pre-incubation plates—1) compound from the Intermediate Plate was mixed with EC solution at a 1:5 dilution to create a 2× Compound Pre-Incubation Plate which was diluted a further 1:2 when added to the Syncropatch for the initial compound pre-incubation. And 2) compound from the Intermediate plate was mixed with EC solution at a 1:10 Dilution to create the 1× Compound Pre-Incubation Plate, which was used for subsequent compound pre-incubations. Finally, a Compound+Agonist Plate was prepared by mixing compound from the 2× Compound Pre-Incubation Plate with 2× concentration of co-agonists in a 1:1 ratio.
Each experiment sequentially included cell catching, sealing, whole-cell formation, liquid application, recording and data acquisition. Whole-cell patch clamp recordings were performed using multi-hole high resistance chips on the SyncroPatch 384i (Nanion Technologies). A steady-state voltage pulse at -80 mV was applied throughout the assay and a 10 second recording window was triggered around 1 second prior to application of co-agonists. Currents were leak corrected and sampled at 5 kHz.
A fast application was used, in which 5 μl co-agonist was rapidly applied at a speed of 30 μl/s and then rapidly removed from the well. To test for modulator activity, the co-agonists glutamate (1 μM) and glycine (100 μM) were applied three times to show activation reproducibility, followed by 120 seconds pre-incubation of test compound alone. The test compound was then re-applied in the presence of co-agonists two times. This was followed by application of the agonist alone, although test compound may not be fully washed from the well prior to this step. Finally, a saturating concentration of co-agonists (glutamate 100 μM/glycine 100 μM) was applied.
The voltage protocol generation data collection and analysis were performed on PatchControll384 and DataControll384. […]
A general note: In patch-clamp work, channel activity is measured electrically.

T1 sequence (Q12879 23-1464, other chains not shown): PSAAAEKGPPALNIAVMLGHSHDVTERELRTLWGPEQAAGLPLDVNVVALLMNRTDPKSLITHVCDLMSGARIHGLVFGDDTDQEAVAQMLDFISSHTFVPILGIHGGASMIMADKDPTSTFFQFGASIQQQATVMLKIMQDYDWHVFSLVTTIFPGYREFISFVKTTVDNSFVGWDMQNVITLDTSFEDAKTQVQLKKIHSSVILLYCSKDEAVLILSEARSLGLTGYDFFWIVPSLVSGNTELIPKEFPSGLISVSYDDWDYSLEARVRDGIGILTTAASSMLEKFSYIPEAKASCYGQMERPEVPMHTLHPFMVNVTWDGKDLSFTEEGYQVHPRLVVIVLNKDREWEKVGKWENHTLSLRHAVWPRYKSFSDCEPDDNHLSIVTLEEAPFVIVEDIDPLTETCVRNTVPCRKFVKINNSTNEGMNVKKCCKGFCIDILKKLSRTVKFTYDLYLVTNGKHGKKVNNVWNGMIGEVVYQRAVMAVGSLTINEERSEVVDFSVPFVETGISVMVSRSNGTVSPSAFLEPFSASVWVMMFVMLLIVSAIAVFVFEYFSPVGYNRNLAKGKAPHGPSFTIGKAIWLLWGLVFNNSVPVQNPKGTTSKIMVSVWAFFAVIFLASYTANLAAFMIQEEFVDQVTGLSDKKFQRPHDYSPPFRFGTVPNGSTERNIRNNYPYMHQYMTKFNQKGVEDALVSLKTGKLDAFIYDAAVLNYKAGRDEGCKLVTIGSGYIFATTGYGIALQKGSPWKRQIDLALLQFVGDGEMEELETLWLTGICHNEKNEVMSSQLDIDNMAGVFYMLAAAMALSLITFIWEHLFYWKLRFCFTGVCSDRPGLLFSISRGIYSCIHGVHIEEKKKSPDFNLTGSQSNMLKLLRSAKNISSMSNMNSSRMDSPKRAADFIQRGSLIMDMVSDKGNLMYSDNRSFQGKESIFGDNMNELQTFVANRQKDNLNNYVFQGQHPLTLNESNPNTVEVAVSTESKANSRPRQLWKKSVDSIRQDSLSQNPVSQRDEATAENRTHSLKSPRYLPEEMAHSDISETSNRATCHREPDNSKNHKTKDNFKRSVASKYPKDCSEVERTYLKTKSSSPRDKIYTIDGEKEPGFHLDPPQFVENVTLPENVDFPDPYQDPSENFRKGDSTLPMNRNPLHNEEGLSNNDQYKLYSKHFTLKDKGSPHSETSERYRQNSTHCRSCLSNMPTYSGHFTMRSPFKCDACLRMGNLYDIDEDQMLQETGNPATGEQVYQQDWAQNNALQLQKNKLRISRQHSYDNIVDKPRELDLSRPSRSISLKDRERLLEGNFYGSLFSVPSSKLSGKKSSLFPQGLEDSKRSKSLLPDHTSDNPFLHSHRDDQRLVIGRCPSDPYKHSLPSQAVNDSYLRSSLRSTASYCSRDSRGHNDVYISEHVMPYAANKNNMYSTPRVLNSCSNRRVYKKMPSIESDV

One may read the Emax as the maximal effect, on the per cent scale that the assay sets. For orientation: EC50 means the concentration that produces a half-maximal response. On to `CC[C@]1(O)CC[C@@]2(C)[C@@H](CC[C@H]3[C@@H]4[C@H]5C[C@H]5[C@H]([C@H](C)CC[C@](C)(O)C(F)(F)F)[C@@]4(C)CC[C@@H]32)C1` [Compound B-5, (2S,4aS,4bS,6aR,7S,7aR,8aS,8bS,8cR,10aS)-2-ethyl-4a,6a-dimethyl-7-((2R,5S)-6,6,6-trifluoro-5-hydroxy-5-methylhexan-2-yl)octadecahydrocyclopropa[4,5]cyclopenta[1,2-a]phenanthren-2-ol], for which the Emax is more than 200% and the EC50 was in the range of 0.1 to 0.5 µM.
Taken in the same sequence, the figures for `CC[C@]1(O)CC[C@@]2(C)[C@@H](CC[C@H]3[C@@H]4[C@H]5C[C@H]5[C@H]([C@H](C)CCC(C)(C)O)[C@@]4(C)CC[C@@H]32)C1` [Compound B-6] were more than 200% and 0.1 to 0.5 µM.
Taken in the same sequence, the figures for `CC[C@]1(O)CC[C@@]2(C)[C@@H](CC[C@H]3[C@@H]4[C@H]5C[C@H]5[C@H]([C@H](C)CC[C@@](C)(O)C(F)(F)F)[C@@]4(C)CC[C@@H]32)C1` [Compound B-7, (2S,4aS,4bS,6aR,7S,7aR,8aS,8bS,8cR,10aS)-2-ethyl-4a, 6a-dimethyl-7-((2R,5R)-6,6,6-trifluoro-5-hydroxy-5-methylhexan-2-yl)octadecahydrocyclopropa[4,5]cyclopenta[1,2-a]phenanthren-2-ol] were 100 to 200% and 0.1 to 0.5 µM.
The corresponding values for `CC[C@]1(O)CC[C@@]2(C)[C@@H](CC[C@@H]3[C@@H]2CC[C@@]2(C)[C@H]3C[C@H]3C[C@]32[C@H](C)CCCC(C)(C)O)C1` [Compound B-8, (2aS,4S,6aS,6bS,8aS,8bS,9aS,10aS,10bR)-4-ethyl-8b-((R)-6-hydroxy-6-methylheptan-2-yl)-6a,8a-dimethyloctadecahydrocyclopropa[3,4]cyclopenta[1,2-a]phenanthren-4-ol] are 100 to 200% and more than 1 µM.
Consider `CC[C@]1(O)CC[C@@]2(C)[C@@H](CC[C@@H]3[C@@H]2CC[C@@]2(C)[C@H]3C[C@H]3C[C@]32[C@H](C)CC[C@](C)(O)C(F)(F)F)C1` [Compound B-10, (2aS,4S,6aS,6bS,8aS,8bS,9aS,10aS,10bR)-4-ethyl-6a,8a-dimethyl-8b-((2R,5S)-6,6,6-trifluoro-5-hydroxy-5-methylhexan-2-yl)octadecahydrocyclopropa[3,4]cyclopenta[1,2-a]phenanthren-4-ol], for which the Emax was 100 to 200% and the EC50 was 0.001 to 0.1 µM.
Taken in the same sequence, the figures for `CC[C@]1(O)CC[C@@]2(C)[C@@H](CC[C@@H]3[C@@H]2CC[C@@]2(C)[C@H]3C[C@H]3C[C@]32[C@H](C)CC[C@@](C)(O)C(F)(F)F)C1` [Compound B-11, (2aS,4S,6aS,6bS,8aS,8bS,9aS,10aS,10bR)-4-ethyl-6a,8a-dimethyl-8b-((2R,5R)-6,6,6-trifluoro-5-hydroxy-5-methylhexan-2-yl)octadecahydrocyclopropa[3,4]cyclopenta[1,2-a]phenanthren-4-ol] were 100 to 200% and 0.001 to 0.1 µM.
For `CC[C@]1(O)CC[C@@]2(C)[C@@H](CC[C@H]3[C@@H]4[C@@H](C)C[C@H]([C@H](C)CCCC(C)(C)O)[C@@]4(C)CC[C@@H]32)C1` [Compound B-12, (3S,5S,8R,9S,10S,13R,14S,15S,17R)-3-ethyl-17-((R)-6-hydroxy-6-methylheptan-2-yl)-10,13,15-trimethylhexadecahydro-1H-cyclopenta[a]phenanthren-3-ol], the Emax lay in the range of 100 to 200% and the EC50 fell in the range of 0.001 to 0.1 µM.
As for `CC[C@]1(O)CC[C@@]2(C)[C@@H](CC[C@H]3[C@@H]4[C@@H](C)C[C@H]([C@H](C)CC[C@@](C)(O)C(F)(F)F)[C@@]4(C)CC[C@@H]32)C1` [Compound B-13, (3S,5S,8R,9S,10S,13R,14S,15S,17R)-3-ethyl-10,13,15-trimethyl-17-((2R,5R)-6,6,6-trifluoro-5-hydroxy-5-methylhexan-2-yl)hexadecahydro-1H-cyclopenta[a]phenanthren-3-ol], the Emax was more than 200% and the half-maximal effective concentration (EC50) was 0.1 to 0.5 µM.
The corresponding values for `CC[C@]1(O)CC[C@@]2(C)[C@@H](CC[C@H]3[C@@H]4[C@@H](C)C[C@H]([C@H](C)CC[C@](C)(O)C(F)(F)F)[C@@]4(C)CC[C@@H]32)C1` [Compound B-14, (3S,5S,8R,9S,10S,13R,14S,15S,17R)-3-ethyl-10,13,15-trimethyl-17-((2R,5S)-6,6,6-trifluoro-5-hydroxy-5-methylhexan-2-yl)hexadecahydro-1H-cyclopenta[a]phenanthren-3-ol] are more than 200% and 0.001 to 0.1 µM.
For the compound `CC[C@]1(O)CC[C@@]2(C)[C@@H](CC[C@H]3[C@@H]4[C@H](C)C[C@H]([C@H](C)CC[C@](C)(O)C(F)(F)F)[C@@]4(C)CC[C@@H]32)C1` [Compound B-15, (3S,5S,8R,9S,10S,13R,14S,15R,17R)-3-ethyl-10,13,15-trimethyl-17-((2R,5S)-6,6,6-trifluoro-5-hydroxy-5-methylhexan-2-yl)hexadecahydro-1H-cyclopenta[a]phenanthren-3-ol], the Emax was 100 to 200% and the EC50 was in the range of 0.001 to 0.1 µM.
As for `CC[C@]1(O)CC[C@@]2(C)[C@@H](CC[C@H]3[C@@H]4[C@H](C)C[C@H]([C@H](C)CC[C@@](C)(O)C(F)(F)F)[C@@]4(C)CC[C@@H]32)C1` [Compound B-16, (3S,5S,8R,9S,10S,13R,14S,15R,17R)-3-ethyl-10,13,15-trimethyl-17-((2R,5R)-6,6,6-trifluoro-5-hydroxy-5-methylhexan-2-yl)hexadecahydro-1H-cyclopenta[a]phenanthren-3-ol], the Emax was in the range of 100 to 200% and the EC50 was in the range of 0.1 to 0.5 µM.
The corresponding values for `CC[C@]1(O)CC[C@@]2(C)[C@@H](CC[C@H]3[C@@H]4[C@H](C5CC5)C[C@H]([C@H](C)CCCC(C)(C)O)[C@@]4(C)CC[C@@H]32)C1` [Compound B-17, (3S,5S,8R,9S,10S,13R,14S,15S,17R)-15-cyclopropyl-3-ethyl-17-((R)-6-hydroxy-6-methylheptan-2-yl)-10,13-dimethylhexadecahydro-1H-cyclopenta[a]phenanthren-3-ol] are 100 to 200% and 0.1 to 0.5 µM.
The corresponding values for `CC[C@]1(O)CC[C@@]2(C)[C@@H](CC[C@H]3[C@@H]4[C@H](C)C[C@H]([C@H](C)CCCC(C)(C)O)[C@@]4(C)CC[C@@H]32)C1` [Compound B-18, (3S,5S,8R,9S,10S,13R,14S,15R,17R)-3-ethyl-17-((R)-6-hydroxy-6-methylheptan-2-yl)-10,13,15-trimethylhexadecahydro-1H-cyclopenta[a]phenanthren-3-ol] are 100 to 200% and 0.001 to 0.1 µM.
`CC[C@]1(O)CC[C@@]2(C)[C@@H](CC[C@H]3[C@@H]4[C@@H](C5CC5)C[C@H]([C@H](C)CCCC(C)(C)O)[C@@]4(C)CC[C@@H]32)C1` [Compound B-19, (3S,5S,8R,9S,10S,13R,14S,15R,17R)-15-cyclopropyl-3-ethyl-17-((R)-6-hydroxy-6-methylheptan-2-yl)-10,13-dimethylhexadecahydro-1H-cyclopenta[a]phenanthren-3-ol]: the Emax fell in the range of 100 to 200% and the concentration for a half-maximal effect (EC50) lay within 0.1 to 0.5 µM.
